From patent publication US20140343000A1 (priority 2011, published 2014)

Test system: recombinant NL4-3 virus (Renilla luciferase in nef, Gag P373S; NLRluc) in MT-2 cells
Assay: whole plant or invertebrate
Assay type: cell-based, HIV
Conditions: Renilla, NL43, luciferase activity in cells infected for 4-5 days with NLRluc recombinants, serial dilutions of inhibitor; class symbols (key in Table 1); read-out: EC50
In short: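 Read-out is Renilla luciferase, measured immediately after adding a premixed lysis/Dual Luciferase reagent. The reporter virus, NL4-3 with luciferase replacing part of nef plus Gag P373S, infected MT-2 cells for 4–5 days under serially diluted inhibitor.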

| Structure (SMILES) | EC50 [nM] |
| --- | --- |
| C=C(C)[C@@H]1CC[C@]2(NC(=O)CCN(C)C)CC[C@]3(C)[C@H](CC[C@@H]4[C@@]5(C)CC=C(c6ccc(C(=O)O)cc6)C(C)(C)[C@@H]5CC[C@]43C)[C@@H]12 [Example 73, 4-((1R,3aS,5aR,5bR,7aR,11aS,11bR,13aR,13bR)-3a-(3-(dimethylamino)propanamido)-5a,5b,8,8,11a-pentamethyl-1-(prop-1-en-2-yl)-2,3,3a,4,5,5a,5b,6,7,7a,8,11,11a,11b,12,13,13a,13b-octadecahydro-1H-cyclopenta[a]chrysen-9-yl)benzoic acid] | < 100 |
| C=C(C)[C@@H]1CC[C@]2(NC(=O)CN(C)CCOC)CC[C@]3(C)[C@H](CC[C@@H]4[C@@]5(C)CC=C(c6ccc(C(=O)O)cc6)C(C)(C)[C@@H]5CC[C@]43C)[C@@H]12 [Example 86, 4-((1R,3aS,5aR,5bR,7aR,11aS,11bR,13aR,13bR)-3a-(2-((2-methoxyethyl)(methyl)amino)acetamido)-5a,5b,8,8,11a-pentamethyl-1-(prop-1-en-2-yl)-2,3,3a,4,5,5a,5b,6,7,7a,8,11,11a,11b,12,13,13a,13b-octadecahydro-1H-cyclopenta[a]chrysen-9-yl)benzoic acid] | < 100 |
| C=C(C)[C@@H]1CC[C@]2(NC(=O)N3CCN(CCO)CC3)CC[C@]3(C)[C@H](CC[C@@H]4[C@@]5(C)CC=C(c6ccc(C(=O)O)cc6)C(C)(C)[C@@H]5CC[C@]43C)[C@@H]12 [Example 38, 4-((1R,3aS,5aR,5bR,7aR,11aS,11bR,13aR,13bR)-3a-(4-(2-hydroxyethyl)piperazine-1-carboxamido)-5a,5b,8,8,11a-pentamethyl-1-(prop-1-en-2-yl)-2,3,3a,4,5,5a,5b,6,7,7a,8,11,11a,11b,12,13,13a,13b-octadecahydro-1H-cyclopenta[a]chrysen-9-yl)benzoic acid] | < 100 |
| C=C(C)[C@@H]1CC[C@]2(NC(=O)NCC(=O)N(C)C)CC[C@]3(C)[C@H](CC[C@@H]4[C@@]5(C)CC=C(c6ccc(C(=O)O)cc6)C(C)(C)[C@@H]5CC[C@]43C)[C@@H]12 [Example 31, 4-((1R,3aS,5aR,5bR,7aR,11aS,11bR,13aR,13bR)-3a-(3-(2-(dimethylamino)-2-oxoethyl)ureido)-5a,5b,8,8,11a-pentamethyl-1-(prop-1-en-2-yl)-2,3,3a,4,5,5a,5b,6,7,7a,8,11,11a,11b,12,13,13a,13b-octadecahydro-1H-cyclopenta[a]chrysen-9-yl)benzoic acid] | < 100 |
| C=C(C)[C@@H]1CC[C@]2(NCCN)CC[C@]3(C)[C@H](CC[C@@H]4[C@@]5(C)CC=C(c6ccc(C(=O)O)cc6)C(C)(C)[C@@H]5CC[C@]43C)[C@@H]12 [Example 139, 4-((1R,3aS,5aR,5bR,7aR,11aS,11bR,13aR,13bR)-3a-(2-aminoethylamino)-5a,5b,8,8,11a-pentamethyl-1-(prop-1-en-2-yl)-2,3,3a,4,5,5a,5b,6,7,7a,8,11,11a,11b,12,13,13a,13b-octadecahydro-1H-cyclopenta[a]chrysen-9-yl)benzoic acid] | < 100 |
| C=C(C)[C@@H]1CC[C@]2(NC(=O)NCCN3CCS(=O)(=O)CC3)CC[C@]3(C)[C@H](CC[C@@H]4[C@@]5(C)CC=C(c6ccc(C(=O)O)cc6)C(C)(C)[C@@H]5CC[C@]43C)[C@@H]12 [Example 21, 4-((1R,3aS,5aR,5bR,7aR,11aS,11bR,13aR,13bR)-3a-(((2-(1,1-dioxido-4-thiomorpholinyl)ethyl)carbamoyl)amino)-1-isopropenyl-5a,5b,8,8,11a-pentamethyl-2,3,3a,4,5,5a,5b,6,7,7a,8,11,11a,11b,12,13,13a,13b-octadecahydro-1H-cyclopenta[a]chrysen-9-yl)benzoic acid] | < 100 |
